Results as given in patent publication US7964629B2, “Inhibitors of isoprenylcysteine carboxyl methyltransferase” (Duke Universtiy, priority 2005, dated 2011).
Read-outs that look alike come from different tables or passages of the source.

Key:
recombinant human Icmt = target: T1, recombinant human Icmt (Homo sapiens, UniProt O60725); assay: Icmt assay: [3H]methyl incorporation from [3H]AdoMet into BFC; format: biochemical
T1 construct: recombinant baculovirus containing the entire open reading frame of the human Icmt cDNA; made in house; host or cells: Sf9 insect cells (baculovirus); membrane fraction used
T1 sequence (O60725 whole entry): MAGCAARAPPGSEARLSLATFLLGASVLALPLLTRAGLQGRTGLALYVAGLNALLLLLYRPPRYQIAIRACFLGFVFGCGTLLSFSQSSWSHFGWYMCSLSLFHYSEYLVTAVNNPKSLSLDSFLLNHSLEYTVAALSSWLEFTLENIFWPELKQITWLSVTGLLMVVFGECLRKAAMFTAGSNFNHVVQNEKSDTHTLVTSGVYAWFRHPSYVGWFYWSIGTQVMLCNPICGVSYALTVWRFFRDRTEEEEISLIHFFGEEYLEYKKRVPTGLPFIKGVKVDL

FTase = FTase (Homo sapiens, UniProt P49354+P49356); assay: FTase inhibition (results not shown); format: biochemical; conditions: concentrations up to 50 μM
GGTase-I = GGTase-I (Homo sapiens, UniProt P49354+P53609); assay: GGTase-I inhibition (results not shown); format: biochemical; conditions: concentrations up to 50 μM
Rce1 protease = target: T2, Rce1 protease (Homo sapiens, UniProt Q9Y256); assay: Rce1 protease inhibition (results not shown); format: biochemical; conditions: concentrations up to 50 μM
T2 construct: made in house; host or cells: Sf9 insect cells; membranes
T2 sequence (Q9Y256 1-329): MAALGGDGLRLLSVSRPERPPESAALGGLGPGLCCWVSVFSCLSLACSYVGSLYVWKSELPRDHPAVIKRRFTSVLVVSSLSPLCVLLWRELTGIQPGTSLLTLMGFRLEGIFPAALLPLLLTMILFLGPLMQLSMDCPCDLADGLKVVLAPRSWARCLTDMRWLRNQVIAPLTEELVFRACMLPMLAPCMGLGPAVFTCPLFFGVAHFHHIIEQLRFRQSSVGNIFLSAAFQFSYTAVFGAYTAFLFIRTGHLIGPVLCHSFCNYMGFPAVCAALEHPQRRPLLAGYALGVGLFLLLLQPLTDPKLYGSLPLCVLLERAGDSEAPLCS

[1] = test system: Icmt−/− mouse embryonic fibroblasts; assay: Cell growth determination, Icmt-deficient fibroblasts; format: cell-based; conditions: 15, 20, 30 μM; 10% serum; six days
Procedure: FIGS. 2A-2C. […] Media and drug were replaced daily, and cell growth was monitored for six days. Data represent the mean and standard deviation of four replicate wells. (FIG. 2A) Icmt^+/+ cells; (FIG. 2B) Icmt^−/− cells; (C) Icmt^−/− cells stably transfected with a gene expressing human ICMT (Icmt^−/−/ICMT cells).
Cell growth assays were performed in a 96-well plate format. Briefly, 500 to 1000 cells were plated into 96-well plates. After the cells were allowed to attach for 24 h, media was removed and replaced with media containing either compound or vehicle. Media and drug were replaced every 24 h throughout the assay. Cell determinations were made at the times indicated in the respective figure by adding 19 μl of CellTiter 96 AqueousOne solution to each well followed by incubation of the plates in the dark at 37° C. for two hr after which the absorbance at 490 nm was read. Background absorbance from blank wells containing only media with compound or vehicle was subtracted from each test well. Typically, 3-6 replicate wells were employed for each point in each assay.

[2] = test system: p42/44 MAPK phosphorylation in DKOB8 colon cancer cells; assay: Phosphoprotein analysis: EGF-stimulated p42/44 MAPK; format: cell-based; conditions: 1 μM, three days, 1% serum, EGF 10 min
Procedure: (§1) FIGS. 3A and 3B. Impact of cysmethynil treatment on Ras localization and signaling. FIG. 3A. Mislocalization of GFP Ras in cysmethynil treated cells. […] Live cells were imaged on a spinning disk confocal microscope. FIG. 3B. Impact of cysmethynil treatment on EGF-stimulated protein phosphorylation. […] Where indicated, cells were treated with EGF for the final 10 min prior to harvesting. Cell lysates containing equal amounts of protein were resolved on a 13% SDS-polyacrylamide gel and probed with antiphospho-Akt, antiphospho-p42/44 MAPK or anti-β-tubulin antibody as indicated. […] Half of the wells were then treated with EGF (10 ng/ml) and half with vehicle for 10 min. Cells were rinsed with PBS and harvested in SDS-PAGE loading buffer. Total cell lysates (30 μg protein) were resolved on 4-20% Tris-glycine polyacrylamide gels (Invitrogen). Proteins were transferred to nitrocellulose and probed with a mix of anti-phospho-Akt and anti-phospho-p42/44 MAPK antibodies, or with anti-tubulin or anti-phospho NFκB antibody (Cell Signaling Technology) as indicated. Visualization was performed with alkaline phosphatase (Promega, Madison, Wis.) as per the manufacturer's instructions.

[3] = test system: Akt phosphorylation in DKOB8 colon cancer cells; assay: Phosphoprotein analysis: EGF-stimulated Akt; format: cell-based; conditions: 1 μM, three days, 1% serum, EGF 10 min
Procedure: as §1

[4] = test system: DKOB8/GFP colon cancer cells; assay: Soft agar growth assay, DKOB8/GFP; format: cell-based; conditions: three weeks
Procedure: (§2) FIGS. 4A-4C. Overexpression of Icmt rescues EGF-stimulated MAPK activation and anchorage-independent growth in cysmethynil-treated cells. FIG. 4A. Creation of cell lines stably overexpressing Icmt. DKOB8 cells were engineered to stably express either GFP alone or a GFP-Icmt fusion protein. Membrane fractions from GFP and GFP-ICMT expressing lines were assayed for Icmt activity using the BFC assay. FIG. 4B. Overexpression of Icmt restores EGF-stimulated MAPK activation in cysmethynil-treated cells. […] Where indicated, cells were treated with EGF for the final 10 min prior to harvesting. Cell lysates containing equal amounts of protein were resolved on a 13% SDS-polyacrylamide gel and probed with antiphospho-p42/44 MAPK or, as a control, antiphospho NFκB antibody as indicated. FIG. 4C. […] After 3 weeks of growth, colonies were stained with MTT and imaged. Soft agar culture media was prepared with 10% FBS in 1× minimum essential medium (MEM) alpha. […] Cells were harvested by trypsinization at ˜80% confluence, mixed into top agar (10,000 cells/plate; 0.3% noble agar in soft agar culture media) and poured onto prepared plates. […] For each condition, triplicate samples (each consisting of three plates) were prepared. […]

[5] = test system: DKOB8/GFP-Icmt colon cancer cells; assay: Soft agar growth assay, DKOB8/GFP-Icmt; format: cell-based; conditions: 20 μM, three weeks; elevated Icmt activity
Procedure: as §2

`CCCCCCCCn1cc(CC(N)=O)c2cc(-c3cccc(C)c3)ccc21` [cysmethynil, 2-[5-(3-methylphenyl)-1-octyl-1H-indol-3-yl]acetamide] was tested, and the IC50 (recombinant human Icmt; BFC substrate, substrates and inhibitor premixed, reaction initiated by addition of enzyme, read-out: IC50 for Icmt inhibition) was 2.4 µM, the IC50 (recombinant human Icmt; Table 1, R1 substituent x scaffold matrix, read-out: IC50) was 2.1 ± 0.9 µM and the IC50 (recombinant human Icmt; Table 3, pre-incubation with Icmt for 30 min at 37° C., read-out: IC50 PI (converted)) was 0.29 µM. For the same compound, the IC50 (recombinant human Icmt; Table 3, without pre-incubation of the enzyme with the compound, read-out: IC50 No PI) was 2.1 ± 0.9 µM, the IC50 (recombinant human Icmt; enzyme premixed with inhibitor and AdoMet for 15 min prior to initiation with BFC, read-out: IC50 for Icmt inhibition) was less than 0.2 µM and the “inhibition of FTase” value (FTase) was “did not inhibit”. For the same compound, the “inhibition of GGTase-I” value (GGTase-I) was “did not inhibit”, the “inhibition of Rce1 protease” value (Rce1 protease) was “did not inhibit” and the cell growth [1] was “largely unaffected”. The “EGF-induced increase in MAPK” value [2] was “almost completely blocked”, the “EGF-induced increase in Akt phosphorylation” value [3] was “partially but not completely attenuated” and the “ability of cells to form colonies in soft agar” value ([4]; 20 μM) was “dramatically reducing the ability of cells to form colonies”. For the same compound, the “ability to grow in soft agar” value ([4]; 10 or 20 μM) was “significantly impaired” and the “ability of cells to form colonies in soft agar” value [5] was “rescue the ability of the cells to form colonies”.
